According to patent US20240067702A1, “LACTAM-MODIFIED P[…]” (DONGBAO PURPLE STAR (HANGZHOU) BIOPHARMACEUTICAL CO., LTD., priority 2020, published 2024):
*1 amine or outer side, *2 acyl side, *3 side chain or, on linkers, in order; H or OH if unused. Where a SMILES comes first, the peptide text is derived from it. Bridges are numbered along the chain shown (N, C = ends). Side-chain parts run from the residue outwards. [ ]: non-standard residue; d: D form. The star is where a group is joined. C20 diacid = O=C(O)CCCCCCCCCCCCCCCCCCC(=O)*; γGlu = O=C(O)[C@H](CCC(=O)[*:2])N[*:1]; AEEA = NCCOCCOCC(=O)O; Aib = CC(C)(N)C(=O)O

What was measured:
GIPR = target: T1, GIPR (Homo sapiens, UniProt P48546); assay: GIPR agonist activity test in vitro (cAMP assay); type: cell-based; conditions: GIPR Agonist Activity EC50 (−) 1% HSA, CHO host cell; without 1% HSA
T1 construct: host or cells: CHO
T1 sequence (P48546 22-466): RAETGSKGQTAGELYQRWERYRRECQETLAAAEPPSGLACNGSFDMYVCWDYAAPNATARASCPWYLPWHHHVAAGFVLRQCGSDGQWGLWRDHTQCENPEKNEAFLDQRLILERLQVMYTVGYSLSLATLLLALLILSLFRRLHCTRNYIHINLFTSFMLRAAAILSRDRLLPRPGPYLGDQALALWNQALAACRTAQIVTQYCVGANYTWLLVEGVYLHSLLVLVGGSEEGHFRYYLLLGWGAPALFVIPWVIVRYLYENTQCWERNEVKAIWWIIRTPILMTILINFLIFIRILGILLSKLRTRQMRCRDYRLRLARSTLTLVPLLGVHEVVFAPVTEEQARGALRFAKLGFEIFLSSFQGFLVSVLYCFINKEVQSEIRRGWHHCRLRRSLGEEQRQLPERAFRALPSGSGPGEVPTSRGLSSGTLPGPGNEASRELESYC
Procedure: The cell strains were constructed by Shanghai WuXi AppTec.
The test compound was serially diluted 4-fold with 10 points. The initial concentration was 30 μM, and the dilution was completed with Bravo.
1) 100 nL of the compound was transferred to OptiPlate-384 plate using Echo.
7) The GLP-1R/GIPR cell concentration was diluted to 2.0*10^5/mL with the experimental buffer.
8) […] of the diluted cell suspension was transferred into the OptiPlate-384 plate.
9) The diluted cell suspension was incubated at room temperature for 30 minutes.
2) 10 μL of cAMP detection reagent was added.
3) The OptiPlate-384 plate was covered with TopSeal-A film and incubated at room temperature for 60 minutes.
TopSeal-A was removed and read in EnVision.

[1] = Pharmacokinetic evaluation in SD rats; type: in vivo; conditions: rat, plasma, 0.048 mg/kg, single SC 0.048 mpk
Procedure: To test the pharmacokinetics of compounds in SD rats in vivo
The pharmacokinetic characteristics of the compounds in rodents after subcutaneous injection were tested according to the standard protocol. In the experiment, the candidate compounds were formulated into clear solutions, and a single subcutaneous injection (SC, 0.048 mpk) was given to the rats. The injection vehicle was citrate buffer (20 mM, pH=7). Whole blood was collected and prepared to obtain plasma. Drug concentration was analyzed by LC-MS/MS method, and pharmacokinetic parameters were calculated by Phoenix WinNonlin software.

[2] = Plasma stability (PLS) test, human plasma; type: in vitro ADME; conditions: pH 7.4, 37° C., up to 120 min, read-out: PLS (H/M) T1/2, H
[3] = Plasma stability (PLS) test, mouse plasma; type: in vitro ADME; conditions: pH 7.4, 37° C., up to 120 min, read-out: PLS (H/M) T1/2
Procedure: To study the stability of test compounds in the plasma of normal mice.
1. Before the experiment, the coagulated frozen plasma was thawed in a water bath at 37° C. Plasma was centrifuged at 4000 rpm for 5 min. If there was blood clot, the blood clot was removed and the pH value was adjusted to 7.4±0.1.
2. Preparation of the test compound solution: 100 μM of the solution was prepared by dilution with DMSO.
3. 98 μL of blank control plasma was added to 2 μL of the test compound solution (100 μM), so that the final concentration of the mixed solution of the two reached 2 μM, and the mixed solution was placed in a 37° C. water bath for incubation.
4. At each time point (0, 10, 30, 60, and 120 min), 1(X) μL of H3PO4 solution and 800 μL of stop solution (200 ng/mL of tolbutamide and 200 ng/mL of labetalol in 100% methanol solution) were added to precipitate protein, and mixed thoroughly.
5. The samples were centrifuged at 4000 rpm for 20 min, and 1(X) μL of supernatant was taken from each well for LC-MS/MS analysis.

[4] = Plasma protein binding (PPB) test, mouse; type: in vitro ADME; conditions: pH 7.4, ultracentrifugation
Procedure: To study the binding of the test compounds to human/mouse plasma albumin.
1. Matrix preparation: On the day of the experiment, the plasma was thawed in cold water and centrifuged at 3220 rpm for 5 min to remove all blood clots. The pH of the obtained plasma was measured and adjusted to 7.4±0.1 using 1% phosphoric acid or 1N sodium hydroxide as needed.
2. Dilution steps of the test compounds: The test compounds were dissolved in dimethyl sulfoxide (DMSO) to prepare stock solutions at concentrations of 10 mM and 2 mM, respectively. A 40 μM working solution was prepared by diluting 2 μL of the stock solution (2 mM) with 98 μL of DMSO. A 400 μM working solution of the control compound was prepared by diluting 10 μL of the stock solution with 240 μL of DMSO. The working solution of the compound (5 μL) was mixed with the blank matrix (995 μL) at a ratio of 1:200 to prepare the loading matrix.
3.1 An equal amount of 30 μL of the loading matrix (n=2) was transferred to the sample collection plate to prepare samples of time 0 (TO) for residue determination. The samples were immediately matched to the corresponding blank buffer in a final volume of 60 μL with a 1:1 volume ratio of plasma to buffer in each well. Then, 60 μL of 4% H3PO4 in H2O and 480 μL of stop solution containing an internal standard were then added to the TO samples of the test compounds. They were then stored at 2-8° C. with other samples pending for further processing.
3.2 The remaining plasma samples were pre-incubated in a carbon dioxide incubator at 37±1° C. for 30 min. The prepared protein-free samples (F samples) and loading matrix samples (230 μL) were transferred to polycarbonate tubes (n=2) and ultracentrifuged at 37° C. and 155000×g (35000 rpm) for 4 hours.
3.3 To prepare T samples (test samples), an additional matrix-containing sample was transferred to a separate 96-well plate (sample incubation plate) and incubated at 37° C. for 4 hours.
3.4 After centrifugation, 30 μL of protein-free sample and 30 μL of T sample were transferred from the second layer of supernatant (below the upper layer) to a new sample collection plate. Each sample was mixed with the corresponding blank buffer or matrix in a final volume of 60 μL with a matrix:buffer volume ratio of 1:1. 60 μL of 4% H3PO4 aqueous solution and 480 μL of stop solution (containing internal standard) were added to all samples. The mixture was centrifuged at 4000 rpm for 20 min, and 100 μL of the supernatant of each sample was taken for LC-MS/MS analysis.

**Q.** With `CC[C@H](C)[C@H](NC(=O)[C@H](CC(C)C)NC(=O)[C@H](Cc1c[nH]c2ccccc12)NC(=O)[C@@H]1CCC(=O)NCCCC[C@H](NC(=O)[C@H](CCC(N)=O)NC(=O)[C@H](C)NC(=O)[C@H](CCCCNC(=O)COCCOCCNC(=O)COCCOCCNC(=O)CC[C@H](NC(=O)CCCCCCCCCCCCCCCCCCC(=O)O)C(=O)O)NC(=O)[C@H](CCCCN)NC(=O)[C@H](CC(=O)O)NC(=O)[C@H](CC(C)C)NC(=O)C(C)(C)NC(=O)[C@@H](NC(=O)[C@H](CO)NC(=O)[C@H](Cc2ccc(O)cc2)NC(=O)[C@H](CC(=O)O)NC(=O)[C@H](CO)NC(=O)[C@@H](NC(=O)[C@H](Cc2ccccc2)NC(=O)[C@@H](NC(=O)CNC(=O)[C@H](CCC(=O)O)NC(=O)C(C)(C)NC(=O)[C@@H](N)Cc2ccc(O)cc2)[C@@H](C)O)[C@@H](C)O)[C@@H](C)CC)C(=O)N[C@@H](C)C(=O)N[C@@H](Cc2ccccc2)C(=O)N[C@@H]([C@@H](C)CC)C(=O)N1)C(=O)N[C@@H](C)C(=O)NCC(=O)NCC(=O)N1CCC[C@H]1C(=O)N[C@@H](CO)C(=O)N[C@@H](CO)C(=O)NCC(=O)N[C@@H](C)C(=O)N1CCC[C@H]1C(=O)N1CCC[C@H]1C(=O)N1CCC[C@H]1C(=O)N[C@@H](CO)C(N)=O` [WX-006] (H-Y[Aib]EGTFTSDYSI[Aib]LDKK([AEEA-AEEA-γGlu-C20 diacid])AQKAFIEWLIAGGPSSGAPPPS-NH2; lactam 20-24) as the compound, how does the EC50 (GIPR) read?
**A.** 0.45 nM

**Q.** What about the half-life ([1]; read-out: Half-life T1/2 (converted)) of the same compound?
**A.** 10 h

**Q.** And the Cmax ([1]; read-out: Maximum Plasma Concentration)?
**A.** 16 nM

**Q.** And the AUC(0-t) ([1]; read-out: SC Concentration Integral AUC0-72 h)?
**A.** 0.846 µM·h

**Q.** What about the half-life at 2 μM [2] of the same compound?
**A.** > 4.82 h

**Q.** What about the half-life at 2 μM [3] of the same compound?
**A.** > 4.82 h

**Q.** And the fraction unbound at 4 h, 0.2 μM [4]?
**A.** 0.0035
